Pest or weed control, chromatographic logP and Efficacy in % data for 26 molecules are collected here from US20060178513A1, “Pyridinylanilides” (priority 2003, published 2006).

Each structure is given as a SMILES string. Like-named read-outs stand apart in the source and are kept apart here.

One data set concerns Podosphaera leucotricha. Kind of data set: Podosphaera test (apple)/protective. Format: in vivo. The note with it: topical, 240 h, apple plants, protective, application rate 100 g/ha, evaluation 10 days after inoculation, read-out: Efficacy in %. As to the method:
[table] To produce a suitable preparation of active compound, 1 part by weight of active compound is mixed with the stated amounts of solvent and emulsifier, and the concentrate is diluted with water to the desired concentration. To test for protective activity, young plants are sprayed with the preparation of active compound at the stated application rate. After the spray coating has dried on, the plants are inoculated with an aqueous spore suspension of the apple mildew pathogen Podosphaera leucotricha. The plants are then placed in a greenhouse at about 23° C. and a relative atmospheric humidity of about 70%. Evaluation is carried out 10 days after the inoculation. 0% means an efficacy which corresponds to that of the control, whereas an efficacy of 100% means that no infection is observed.

A short description of data set [1]: logP determination by HPLC (reversed-phase C 18), EEC Directive 79/831 Annex V.A8. Format: physicochemical. As to the method:
The logP values given in the Preparation Examples were determined in accordance with EEC Directive 79/831 Annex V.A8 by HPLC (High Performance Liquid Chromatography) using a reversed-phase column (C 18). Temperature: 43° C. Mobile phases for the determination in the acidic range: 0.1% aqueous phosphoric acid, acetonitrile; linear gradient from 10% acetonitrile to 90% acetonitrile. Calibration was carried out using straight-chain alkan-2-ones (having 3 to 16 carbon atoms) with known logp values (determination of the logp values by the retention times using linear interpolation between two successive alkanones).

In another data set the test system is Pyrenophora teres. Kind of data set: Pyrenophora teres test (barley)/protective. The note with it: barley plants, protective, application rate 500 g/ha, evaluation 8 days after inoculation. Format: in vivo. As to the method: (§1) [table] To produce a suitable preparation of active compound, 1 part by weight of active compound is mixed with the stated amount of solvent and emulsifier, and the concentrate is diluted with water to the desired concentration. To test for protective activity, young plants are sprayed with the preparation of active compound at the stated application rate. After the spray coating has dried on, the plants are sprayed with a conidia suspension of Pyrenophora teres. The plants remain in an incubation cabin at 20° C. and 100% relative atmospheric humidity for 48 hours. The plants are then placed in a greenhouse at a temperature of about 20° C. and a relative atmospheric humidity of about 80%. Evaluation is carried out 8 days after the inoculation. 0% means an efficacy which corresponds to that of the control, whereas an efficacy of 100% means that no infection is observed.

The next data set concerns Puccinia recondita. The experiment in a line: Puccinia test (wheat)/protective. Format: in vivo. The note with it: wheat plants, protective, application rate 500 g/ha, evaluation 10 days after inoculation. As to the method: as §1, with “stated amounts” for “stated amount”, “of Puccinia recondita.” for “of Pyrenophora teres.”, “of approximately” for “of about”, “of 80% to promote the development of rust pustules.” for “of about 80%.”, “out 10” for “out 8”

The next data set relates to Alternaria solani. Kind of data set: Alternaria test (tomato)/protective. The class given is in vivo. The note with it: tomato plants, protective, application rate 750 g/ha, evaluation 7 days after inoculation. As to the method:
[table] To produce a suitable preparation of active compound, 1 part by weight of active compound is mixed with the stated amounts of solvent and emulsifier, and the concentrate is diluted with water to the desired concentration. To test for protective activity, young tomato plants are sprayed with the preparation of active compound at the stated application rate. 1 day after the treatment, the plants are inoculated with a spore suspension of Alternaria solani and then remain at 100% rel. humidity and 20° C. for 24 h. The plants then remain at 96% rel. atmospheric humidity and a temperature of 20° C. Evaluation was carried out 7 days after the inoculation. 0% means an efficacy which corresponds to that of the control, whereas an efficacy of 100% means that no infection is observed.

For another data set, the system named is Venturia inaequalis. Kind of data set: Venturia Test (Apple)/protective. The class given is in vivo. The note with it: topical, 240 h, apple plants, protective, application rate 100 g/ha, evaluation 10 days after inoculation, read-out: Efficacy in %. As to the method:
[table] To produce a suitable preparation of the active compound, 1 part by weight of active compound is mixed with the stated amounts of solvents and emulsifier, and the concentrate is diluted with water to the desired concentration. To test for protective activity, young plants are sprayed with the preparation of active compound at the stated application rate. After the spray coating has dried on, the plants are inoculated with an aqueous conidia suspension of the apple scab pathogen Venturia inaequalis and then remain in an incubation cabin at about 20° C. and 100% relative atmospheric humidity for 1 day. The plants are then placed in a greenhouse at about 21° C. and a relative atmospheric humidity of about 90%. Evaluation is carried out 10 days after the inoculation. 0% means an efficacy which corresponds to that of the control, whereas an efficacy of 100% means that no infection is observed.

Setting [2] is: reversed-phase HPLC column (C 18), HPLC, reversed-phase C 18, 43° C., acidic range (0.1% aqueous phosphoric acid/acetonitrile), read-out: logP.
Setting [3] is: reversed-phase HPLC column (C 18), pH 2.3, HPLC, reversed-phase C 18, 43° C., read-out: log P (pH 2.3).

As to `Cn1cc(C(=O)Nc2ccccc2-c2ccc(Cl)nc2)c(C(F)F)n1` [1-6-7], the pest or weed control at 100 g/ha in the data set on Podosphaera leucotricha was 98%. For the same molecule, in data set [1] (setting [2]), the chromatographic logP came out at 2.1.
As to `Cc1nn(C)c(F)c1C(=O)Nc1ccccc1-c1ccnc(Br)c1` [1-7-4], the Efficacy in % with Pyrenophora teres came to 93%; in the data set on Puccinia recondita, 100%. Moreover, in data set [1] (setting [2]), the chromatographic logP was 2.02.
`O=C(Nc1ccccc1-c1ccnc(Br)c1)c1ccccc1C(F)(F)F` [1-7-5] showed an Efficacy in % in the data set on Pyrenophora teres of 93%. Besides, the chromatographic logP in data set [1] (setting [2]) worked out at 2.85.
With `Cn1cc(C(=O)Nc2ccccc2-c2ccnc(Br)c2)c(C(F)F)n1` [1-7-6], the Efficacy in % in the data set with Pyrenophora teres was determined as 93%; in the data set with Puccinia recondita, 100%; in the data set with Alternaria solani it was 95%. Further, in data set [1] (setting [2]), the chromatographic logP was 2.13.
Consider `Cn1nc(C(F)(F)F)c(C(=O)Nc2ccccc2-c2cc(Cl)nc(Cl)c2)c1F` [1-7-9], for which the pest or weed control at 100 g/ha in the data set on Venturia inaequalis worked out at 100%.
Regarding `Cc1nc(C(F)(F)F)c(C(=O)Nc2ccccc2-c2cc(Cl)nc(Cl)c2)s1` [1-7-10], the pest or weed control at 100 g/ha in the data set on Venturia inaequalis and in the data set on Podosphaera leucotricha was 100% each time. The molecule further yielded an Efficacy in % in the data set with Alternaria solani of 100%. Besides, the chromatographic logP in data set [1] (setting [2]) came to 3.27.
As to `O=C(Nc1ccccc1-c1ncc(C(F)(F)F)cc1Cl)c1ccccc1C(F)(F)F` [1-8-1], the pest or weed control at 100 g/ha with Venturia inaequalis and with Podosphaera leucotricha was 100% in each case. The Efficacy in % in the data set with Puccinia recondita is 100%. The chromatographic logP in data set [1] (setting [2]) worked out at 3.59; in data set [1] (setting [3]) it was 3.58.
Regarding `Cc1occc1C(=O)Nc1ccccc1-c1ncc(C(F)(F)F)cc1Cl` [1-8-2], the Efficacy in % in the data set on Pyrenophora teres, in the data set on Puccinia recondita and in the data set on Alternaria solani was 100% throughout. In data set [1] (setting [2]), the chromatographic logP was found to be 3.44.
For `Cc1ccsc1C(=O)Nc1ccccc1-c1ncc(C(F)(F)F)cc1Cl` [1-8-3], the Efficacy in % was found to be 100% with Pyrenophora teres, 100% with Puccinia recondita and 95% in the data set with Alternaria solani. The pest or weed control at 100 g/ha in the data set on Venturia inaequalis and in the data set with Podosphaera leucotricha was 100% throughout. The chromatographic logP in data set [1] (setting [2]) came out at 3.83.
Turning to `O=C(Nc1ccccc1-c1ccc(C(F)(F)F)cn1)c1ccccc1C(F)(F)F` [1-8-9], the Efficacy in % in the data set with Alternaria solani was 95%. Further, in the data set on Podosphaera leucotricha, the pest or weed control at 100 g/ha was determined as 97%. Also, the chromatographic logP in data set [1] (setting [2]) is 4.13.
With `O=C(Nc1ccccc1-c1ccc(Cl)cn1)c1cccnc1Cl` [1-8-10], the Efficacy in % turned out to be 100% with Pyrenophora teres and 94% in the data set with Puccinia recondita. In addition, the pest or weed control at 100 g/ha in the data set on Venturia inaequalis and with Podosphaera leucotricha was 100% throughout. The chromatographic logP in data set [1] (setting [2]) was determined as 2.95.
Turning to `Cc1nn(C)c(F)c1C(=O)Nc1ccccc1-c1ccc(Cl)cn1` [1-8-11], the pest or weed control at 100 g/ha with Venturia inaequalis stood at 100%; with Podosphaera leucotricha it was 95%. In addition, the chromatographic logP in data set [1] (setting [2]) was 3.06.
The matching figures for `O=C(Nc1ccccc1-c1ccc(Cl)cn1)c1ccccc1C(F)(F)F` [1-8-12]: 100%, 92% and 4.
Take `Cn1cc(C(=O)Nc2ccccc2-c2ccc(Cl)cn2)c(C(F)F)n1` [1-8-14]: the Efficacy in % with Pyrenophora teres is 94%. In the data set on Venturia inaequalis, the pest or weed control at 100 g/ha is 100%. Further, in data set [1] (setting [2]), the chromatographic logP was determined as 3.05.
Regarding `CON=Cc1ccc(-c2ccccc2NC(=O)c2cccnc2Cl)nc1` [1-8-15, 2-chloro-N-{2-[5-(E)methoxyimino-methyl)-pyridin-2-yl]-phenyl}-nicotinamide], the chromatographic logP in data set [1] (setting [2]) and in data set [1] (setting [3]) was 2.95 each time.
`O=C(Nc1ccccc1-c1ncc(C(F)(F)F)cc1Cl)c1ccccc1Cl` [1-8-20]: the pest or weed control at 100 g/ha with Podosphaera leucotricha was determined as 100%. In data set [1] (setting [2]), the chromatographic logP came out at 3.45.
`O=C(Nc1ccccc1-c1ncc(C(F)(F)F)cc1Cl)c1ccccc1Br` [1-8-21]: the pest or weed control at 100 g/ha with Podosphaera leucotricha was determined as 100%. For the same molecule, in data set [1] (setting [2]), the chromatographic logP was 3.49.
Regarding `O=C(Nc1ccccc1-c1ncc(C(F)(F)F)cc1Cl)C1=C(C(F)(F)F)OCCS1` [1-8-25], in the data set on Venturia inaequalis, the pest or weed control at 100 g/ha came out at 99%. Further, the chromatographic logP in data set [1] (setting [2]) turned out to be 3.43.
For `Cn1cc(C(=O)Nc2ccccc2-c2ncc(C(F)(F)F)cc2Cl)c(C(F)F)n1` [1-8-27], the pest or weed control at 100 g/ha is 100% in the data set with Venturia inaequalis and 97% with Podosphaera leucotricha. In data set [1] (setting [2]), the chromatographic logP was 2.91.
For the molecule `Cc1nc(C(F)(F)F)c(C(=O)Nc2ccccc2-c2ncc(C(F)(F)F)cc2Cl)s1` [1-8-28], the pest or weed control at 100 g/ha with Venturia inaequalis was determined as 98%; in the data set with Podosphaera leucotricha, 96%. Further, in data set [1] (setting [2]), the chromatographic logP came to 3.48.
For `Cn1cc(C(=O)Nc2ccccc2-c2ncc(C(F)(F)F)cc2Cl)c(C(F)(F)F)n1` [1-8-29], the pest or weed control at 100 g/ha in the data set with Venturia inaequalis was found to be 98%. Also, in data set [1] (setting [2]), the chromatographic logP turned out to be 3.13.
For the molecule `Cn1cc(C(=O)Nc2ccccc2-c2ncc(C(F)(F)F)cc2Cl)c(I)n1` [1-8-30], the pest or weed control at 100 g/ha in the data set with Venturia inaequalis was determined as 92%. In addition, the chromatographic logP in data set [1] (setting [2]) came out at 2.92.
On to `Nc1ccccc1-c1ncc(C(F)(F)F)cc1Cl` [III-1, 2-[3-chloro-5-(trifluoromethyl)-2-pyridinyl]aniline], for which the chromatographic logP in data set [1] (setting [3]) was 2.79.
As for `CO/N=C/c1ccc(-c2ccccc2N)nc1` [III-2, 6-(2-amino-phenyl)-pyridine-3-carbaldehyde (E)-O-methyl-oxime], in data set [1] (setting [3]), the chromatographic logP turned out to be 1.59.
The same measure, in the same setting: as for `O=C(Nc1ccccc1I)c1ccccc1C(F)(F)F` [IV-1], the figure is 2.98.
The molecule `CO/N=C/c1ccc(Br)nc1` [VII-1, 6-bromo-pyridine-3-carbaldehyde (E)-O-methyl-oxime] registered a chromatographic logP in data set [1] (pH 2.3) of 2.16.
